Experimental data reported in patent US7005539B2, “Ferulic acid dimers and their pharmaceutically acceptable salts, their preparation and use thereof for treating dementia” (Korea Institute of Science and Technology, priority 2001, dated 2006).

Key:
[1] = system: mice administered with beta-amyloid; test: passive avoidance test in mice given beta-amyloid into the cerebral ventricle; type: in vivo, mouse; conditions: group C (dimer and beta-amyloid) compared with group B (beta-amyloid (1–42) only); 24 h after training; maximum 300 seconds; FIG. 1
Description: Four groups of 10 mice aged 4–5 weeks, weighing 20–25 g, were administered with samples dissolved in 1% DMSO and 1% CMC using Sonde once per 1 day(samples: A-reverse phase betaamyloid, B-betaamyloid, C-ferulic acid dimer of example 1 and betaamyloid, D-ferulic acid and betaamyloid). After injection of […] sample to the celebral ventricle on each of 3 consecutive days, passive avoidance test on days 1 and 2, and Y-maze test on days 3 and 4 following the last injection were conducted. All data attained by the average mean of 10 mice each group.
Injection into the cerebral ventricle was performed according to the method described in Laursen & Belknap, J. Pharmacol. Methods. 1986, 16, 355. […]
In order to examine the learning and memory-retention ability of a mouse, a passive avoidance test was carried out in accordance with the method described in Song et al., J. Neurochem., 1998, 71, 875. […] Twenty-four hours after the training, the mouse was put in the light room again and the time it took to enter the dark room was measured as a passive avoidance time. The maximum restriction time was set at 300 seconds, i. e., in cases where the mouse took more than 300 seconds to enter the dark room, the passive avoidance time was determined to be 300 seconds.

Sprague-Dawley rats = test: single-dose oral toxicity test in rats; type: in vivo, rat; conditions: for LD50: oral, one time, in corn oil, observed 7 days
Description: Twenty female and twenty male Sprague-Dawley rats aged 4 weeks were divided into four groups including 5 female and 5 male rats, after being raised in a vivarium of temperature 22±3° C., relative humidity 50±10%, illumination 150–300 Lux for 1 week.
The ferulic acid dimers prepared in Example 1 was dissolved in corn oil, and the rats of 4 groups were orally administered with the solutions at a dose of 300, 1,000, 3,000 and 10,000 mg/kg one time. For 7 days after administration, changes of general symptoms and occurrence of death were observed. In addition, the rats were killed on day 7 after administration, dissected, and internal organs were examined with unaided eye. From the extract administration day, daily weight changes were measured and thus the weight decrease of animals attributed to ferulic acid dimers was observed.

cynuclein = test: T7 phage display selection of human brain cDNA library proteins on immobilized ferulic acid (chemical genomics); type: binding; conditions: screening repeated 3–4 times; identified by sequencing and BLAST
From the text: (§1) In order to study a functional mechanism of ferulic acid dimers, the present inventors conducted an experiment to screen from protein libraries proteins conjugatable with ferulic acid by use the method of chemical genomics. To this end, ferulic acid was immobilized onto a solid substrate and treated with T7 phages having proteins translated from a human brain and cDNA library on their surface to select the proteins bound to the immobilized ferulic acid. For selection of the proteins with the best affinity for ferulic acid, the screening procedure was repeated 3–4 times. Base sequencing of the cDNA selected allowed the amino acid sequences of the corresponding proteins to be inferred. […] Of the proteins thus identified, cynuclein and plasophylin attracted particular attention. These two proteins, known to be directly or indirectly associated with formation of intercelluar or intracelluar plaque, were therefore found to be inhibited from forming plaques by ferulic acid.

plasophylin = test: as above; type: binding; conditions: screening repeated 3–4 times; identified by sequencing and BLAST
From the text: as §1

mouse = conditions: separated ferulic acid monomer administered to mouse; cited from earlier work

| Compound | step-through latency [1] | LD50 (Sprague-Dawley rats; females) | body weight (Sprague-Dawley rats; groups administered with 1,000 mg/kg or less) | LD50 (Sprague-Dawley rats; males) | pathological changes seen with naked eye on dissection (Sprague-Dawley rats; surviving animals, groups administered 1,000 mg/kg or less, day 7) | protein selected as bound to immobilized ferulic acid (cynuclein) | protein selected as bound to immobilized ferulic acid (plasophylin) | memory-retention ability of mouse (mouse) |
| --- | --- | --- | --- | --- | --- | --- | --- | --- |
| O=C(O)C=Cc1ccc(O)c(OCCOc2cc(C=CC(=O)O)ccc2O)c1 [Example 1, 1,2-[2-hydroxy-5-(2-carboxyvinyl)]phenoxyethane] | significantly higher | 2,804 mg/kg | not decreased | 3,722 mg/kg | No pathological changes |  |  |  |
| COc1cc(/C=C/C(=O)O)ccc1O [ferulic acid, 4-hydroxy-3-methoxy cinnamic acid] |  |  |  |  |  | specifically bound | specifically bound | considerably increased |
